Among the data in ChEMBL document CHEMBL4680105, “Discovery of Benzenesulfonamide Derivatives as Carbonic Anhydrase Inhibitors with Effective Anticonvulsant Action: Design, Synthesis, and Pharmacological Evaluation” (J Med Chem, 2018) are Activity values, retold here.

Data set [1] concerns Mus musculus. Nature of the data set: Anticonvulsant activity in Swiss Albino mouse assessed as protection against seizure at 100 mg/kg, ip measured after 3 hrs by sc-PTZ seizure test relative to control. In kind it is functional.
For data set [2], the system named is Mus musculus. In words: Anticonvulsant activity in Swiss Albino mouse model of maximal electroshock-induced seizure assessed as protection against seizure by measuring suppression of hind limb extension at 30 mg/kg, po pretreated for 30 mins before seizure stimulation and measured after 0.5 hrs by MES test relative to control. The data set is classed as functional. The conditions noted are these: time 60 min, 1 h. A general note: Protection in the maximal electroshock model is a classic sign of anticonvulsant action.

In data set [3] the test system is Mus musculus. Nature of the data set: Anticonvulsant activity in Swiss Albino mouse assessed as protection against seizure at 30 mg/kg, ip measured after 3 hrs by sc-PTZ seizure test relative to control. In kind it is functional.
A short description of data set [4]: Hepatotoxicity in Wistar rat assessed as SGOT level at 100 mg/kg, po for 14 days (reference value: 59.9 +/- 11 U/L) by liver function test. The data set is classed as toxicity, organism-based. Conditions: in vivo, 336 h, time 14 day.
Data set [5] can be described thus: Hepatotoxicity in Wistar rat assessed as total bilirubin level at 100 mg/kg, po for 14 days (reference value: 0.32 +/- 0.09 mg/dL) by liver function test. The data set is classed as toxicity, organism-based. Conditions: in vivo, 336 h, time 14 day.
Data set [6] can be described thus: Hepatotoxicity in Wistar rat assessed as alkaline phosphatase level at 100 mg/kg, po for 14 days (reference value: 114.2 +/- 8.4 U/L) by liver function test. In kind it is toxicity, organism-based. Conditions: in vivo, 336 h, time 14 day.
Data set [7] in a line: Renal toxicity in Wistar rat assessed as Cl- level at 100 mg/kg, po for 14 days (reference value: 105.5 +/- 6.5 mequiv/L) by kidney function test. Conditions: in vivo, 336 h, time 14 day. In kind it is organism-based.
A short description of data set [8]: Renal toxicity in Wistar rat assessed as phosphorus level at 100 mg/kg, po for 14 days (reference value: 9.4 +/- 2.0 mg/dL) by kidney function test. In kind it is organism-based. The conditions noted are these: in vivo, 336 h, time 14 day.
Data set [9] is described as follows: Hepatotoxicity in Wistar rat assessed as total protein level at 100 mg/kg, po for 14 days (reference value: 6.35 +/- 0.46 g/dL) by liver function test. Conditions: in vivo, 336 h, time 14 day. In kind it is toxicity, organism-based.
The nature of data set [10]: Renal toxicity in Wistar rat assessed as K+ level at 100 mg/kg, po for 14 days (reference value: 4.82 +/- 0.3 mequiv/L) by kidney function test. The data set is classed as organism-based. The conditions noted are these: in vivo, 336 h, time 14 day.
Data set [11] in a line: Renal toxicity in Wistar rat assessed as calcium level at 100 mg/kg, po for 14 days (reference value: 10.3 +/- 1.8 mg/dL) by kidney function test. The data set is classed as organism-based. Conditions: in vivo, 336 h, time 14 day.

With `NS(=O)(=O)c1ccc(CNC(=O)CCN2CCN(Cc3ccc4c(c3)OCO4)CC2)cc1`, the Activity in data set [1] was 50%; in data set [2], 50%; in data set [3], 67%; in data set [4] it was 64.2 U/L; in [5] it was 0.38 mg/dL; in data set [6] it was 113.4 U/L. For the same compound, the Activity in data set [7] came out at 104.3 mEq/L; in [8], 6.8 mg/dL; in [9], 6.2 g/dL; in [10], 4.9 mEq/L; in [11] it was 9.9 mg/dL.
